This note sets out measurements from patent US20060178374A1, “Aminoheteroaryl compounds as protein kinase inhibitors” (AGOURON PHARMACEUTICALS, INC., priority 2004, published 2006).

The structures appear in SMILES notation.

Sequence of HGFR (c-Met) (P08581 974-1390): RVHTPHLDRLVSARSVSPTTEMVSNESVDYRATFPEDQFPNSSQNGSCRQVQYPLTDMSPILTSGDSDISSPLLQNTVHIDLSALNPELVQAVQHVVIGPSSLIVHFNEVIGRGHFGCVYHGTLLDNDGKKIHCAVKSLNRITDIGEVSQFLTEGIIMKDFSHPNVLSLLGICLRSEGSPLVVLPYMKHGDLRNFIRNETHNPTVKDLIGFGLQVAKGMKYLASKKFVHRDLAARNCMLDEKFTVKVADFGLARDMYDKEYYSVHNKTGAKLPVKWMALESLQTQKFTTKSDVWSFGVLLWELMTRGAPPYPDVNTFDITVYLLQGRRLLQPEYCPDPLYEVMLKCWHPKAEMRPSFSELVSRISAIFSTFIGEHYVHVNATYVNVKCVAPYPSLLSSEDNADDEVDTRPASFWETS

One experiment has as its target HGFR (c-Met) (Homo sapiens, UniProt P08581). As to the kind of experiment: HGFR Continuous-Coupled Spectrophotometric Assay. It is filed as biochemical. The settings on record: HGFR enzyme 50 nM, Met-2 peptide substrate, 37° C. In short, it runs like this:
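Human HGFR (50 nM final) phosphorylates the Met-2 activation-loop peptide, with ADP formation coupled through PK/LDH to NADH consumption, read as the A340 decrease over 10 min at 37 °C. Buffer was HEPES pH 7.5 with MgCl2, DTT, PEP and ATP.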
As usually defined, the Ki is the dissociation constant of the complex between target and ligand, obtained from inhibition or displacement. Low values mean tighter binding, high ones weaker binding. `Cc1[nH]c(C(=O)O)c(C)c1-c1cnc(N)c(OC(C)c2c(Cl)ccc(F)c2Cl)c1` (centres unmarked) [Example 42, 4-{6-Amino-5-[1-(2,6-dichloro-3-fluoro-phenyl)-ethoxy]-pyridin-3-yl}-3,5-dimethyl-1H-pyrrole-2-carboxylic acid] gave an inhibition constant (Ki) of 1.25 µM.

As to `CC(Oc1cc(-c2ccc(C(=O)NCC3CCNC3)cc2)cnc1N)c1c(Cl)ccc(F)c1Cl` (centres unmarked) [Example 15, 4-{6-Amino-5-[1-(2,6-dichloro-3-fluorophenyl)ethoxy]pyridin-3-yl}-N-(pyrrolidin-3-ylmethyl)benzamide], the Ki was 0.071 µM. For `CC(Oc1cc(-c2ccc(CC(=O)N3CCNCC3)cc2)cnc1N)c1c(Cl)ccc(F)c1Cl` (centres unmarked) [Example 100, 2-(4-{6-Amino-5-[1-(2,6-dichloro-3-fluoro-phenyl)-ethoxy]-pyridin-3-yl}-phenyl)-1-piperazin-1-yl-ethanone], the Ki was 0.037 µM. Still for that read-out and setting: next, `COc1ccc(-c2cnc(N)c(OC(C)c3c(Cl)ccc(F)c3Cl)c2)cc1` (centres unmarked) [Example 131, 3-[1-(2,6-dichloro-3-fluorophenyl)ethoxy]-5-(4-methoxyphenyl)pyridin-2-amine]: 0.133 µM; `COCCN1CCN(C(=O)c2ccc(-c3cnc(N)c(OC(C)c4c(Cl)ccc(F)c4Cl)c3)cc2)CC1` (centres unmarked) [Example 4]: 0.044 µM; `CC(Oc1cc(-c2ccc(C(=O)NC3CCNCC3)cc2)cnc1N)c1c(Cl)ccc(F)c1Cl` (centres unmarked) [Example 12, 4-{6-Amino-5-[1-(2,6-dichloro-3-fluorophenyl)ethoxy]pyridin-3-yl}-N-piperidin-4-ylbenzamide]: 0.041 µM.

Regarding `CC(Oc1cc(-c2ccc(NC3CCNCC3)nc2)cnc1N)c1c(Cl)ccc(F)c1Cl` (centres unmarked) [Example 76, 5-[1-(2,6-Dichloro-3-fluoro-phenyl)-ethoxy]-N6′-piperidin-4-yl-[3,3′]bipyridinyl-6,6′-diamine], the inhibition constant (Ki) was determined as 0.022 µM. On the same count and under the same terms, under `CC(Oc1cc(-c2cccc(CC#N)c2)cnc1N)c1c(Cl)ccc(F)c1Cl` (centres unmarked) [Example 133, (3-{6-amino-5-[1-(2,6-dichloro-3-fluorophenyl)ethoxy]pyridin-3-yl}phenyl)acetonitrile] stands 0.041 µM; under `COc1cc(-c2cnc(N)c(OC(C)c3c(Cl)ccc(F)c3Cl)c2)ccc1COC(=O)N(C)C` (centres unmarked) [Example 31, 4-{6-amino-5-[1-(2,6-dichloro-3-fluorophenyl)ethoxy]pyridin-3-yl}-2-methoxybenzyl dimethylcarbamate], 0.149 µM.

For `COc1cc(-c2cnc(N)c(OC(C)c3c(Cl)ccc(F)c3Cl)c2)ccc1C(=O)N1CCCCC1` (centres unmarked) [Example 24, 3-[1-(2,6-dichloro-3-fluorophenyl)ethoxy]-5-[3-methoxy-4-(piperidin-1-ylcarbonyl)phenyl]pyridin-2-amine], the Ki stood at 1.03 µM. Against the preceding compound, the Ki is about 6.9-fold higher.

`CC(Oc1cc(-c2ccc(C3(O)CCNCC3)nc2)cnc1N)c1c(Cl)ccc(F)c1Cl` (centres unmarked) [Example 30]: the Ki is 0.0219 µM.

The compound `CC(Oc1cc(-c2ccc(OCCN3CCCC3)cc2)cnc1N)c1c(Cl)ccc(F)c1Cl` (centres unmarked) [Example 105, 3-[1-(2,6-dichloro-3-fluorophenyl)ethoxy]-5-[4-(2-pyrrolidin-1-ylethoxy)phenyl] pyridin-2-amine] showed a Ki of 0.044 µM. In the case of `CC(Oc1cc(-c2cn(CC(=O)NCCN3CCCC3)cn2)cnc1N)c1c(Cl)ccc(F)c1Cl` (centres unmarked) [Example 60, 2-(4-{6-Amino-5-[1-(2,6-dichloro-3-fluoro-phenyl)-ethoxy]-pyridin-3-yl}-imidazol-1-yl)-N-(2-pyrrolidin-1-yl-ethyl)-acetamide], the Ki stood at 0.599 µM. Against the preceding compound, the Ki is about 14-fold higher.

Compound `COc1cc(-c2cnc(N)c(OC(C)c3c(Cl)ccc(F)c3Cl)c2)ccc1OCCN1CCCC1` (centres unmarked) [Example 111, 3-[1-(2,6-dichloro-3-fluorophenyl)ethoxy]-5-[3-methoxy-4-(2-pyrrolidin-1-ylethoxy)phenyl]pyridin-2-amine] yielded an inhibition constant Ki of 0.028 µM.

With `CC(Oc1cc(-c2cccc(C(=O)N(C)C)c2)cnc1N)c1c(Cl)ccc(F)c1Cl` (centres unmarked) [Example 142], the inhibitory constant (Ki) was found to be 0.059 µM. Compared with the last compound, the Ki is about 2.1-fold higher.

The compound `CC(Oc1cc(-c2ccc(C(=O)N(C)CCCN(C)C)cc2)cnc1N)c1c(Cl)ccc(F)c1Cl` (centres unmarked) [Example 122, 4-{6-amino-5-[1-(2,6-dichloro-3-fluorophenyl)ethoxy]pyridin-3-yl}-[3-(dimethylamino)propyl]-N-methylbenzamide] returned a Ki of 0.025 µM. Compound `CC(Oc1cc(-c2ccc3[nH]cc(CN(C)C)c3c2)cnc1N)c1c(Cl)ccc(F)c1Cl` (centres unmarked) [Example 143, 3-[1-(2,6-dichloro-3-fluorophenyl)ethoxy]-5-{3-[(dimethylamino)methyl]-1H-indol-5-yl}pyridin-2-amine] had an inhibition constant Ki of 0.072 µM. Compared with the last compound, the Ki is about 2.9-fold higher. `C[C@@H](Oc1cc(-c2ccc(C(=O)N(C)CCCN(C)C)cc2)cnc1N)c1c(Cl)ccc(F)c1Cl` [Example 128, 4-{6-amino-5-[(1 R^15)-1-(2,6-dichloro-3-fluorophenyl)ethoxy]pyridin-3-yl}-N-[3-(dimethylamino)propyl]-N-methylbenzamide] showed a Ki of 0.01 µM. `CC(Oc1cc(-c2ccc(O)cc2)cnc1N)c1c(Cl)ccc(F)c1Cl` (centres unmarked) [Example 136, 4-{6-amino-5-[1-(2,6-dichloro-3-fluorophenyl)ethoxy]pyridin-3-yl}phenol] displayed an inhibition constant Ki of 0.073 µM. This Ki is about 7.3-fold higher than that of the compound before. Compound `CC(Oc1cc(Br)cnc1N)c1c(C#N)ccc(F)c1Cl` (centres unmarked) [Example 51, 2-[1-(2-Amino-5-bromo-pyridin-3-yloxy)-ethyl]-3-chloro-4-fluoro-benzonitrile] came in with an inhibition constant (Ki) of 2.09 µM. On to `CC(Oc1cc(-c2cccc(NC(=O)N3CCNCC3)c2)cnc1N)c1c(Cl)ccc(F)c1Cl` (centres unmarked) [Example 45, Piperazine-1-carboxylic acid (3-{6-amino-5-[1-(2,6-dichloro-3-fluoro-phenyl)-ethoxy]-pyridin-3-yl}-phenyl)-amide], for which the Ki stood at 0.096 µM. For the compound `CC(Oc1cc(-c2cn(CC(=O)OC(C)(C)C)cn2)cnc1N)c1c(Cl)ccc(F)c1Cl` (centres unmarked) [Example 58, (4-{6-Amino-5-[1-(2,6-dichloro-3-fluoro-phenyl)-ethoxy]-pyridin-3-yl}-imidazol-1-yl)-acetic acid tert-butyl ester], the affinity corresponds to a Ki of 0.578 µM.

For the compound `CC(Oc1cc(-c2ccc(NS(C)(=O)=O)cc2)cnc1N)c1c(Cl)ccc(F)c1Cl` (centres unmarked) [Example 138, N-(4-{6-amino-5-[1-(2,6-dichloro-3-fluorophenyl)ethoxy]pyridin-3-yl}phenyl) methanesulfonamide], affinity was put at a Ki of 0.032 µM. Same read-out and setting: next, `CC(Oc1cc(-c2ccc(C(=O)N3CCNCC3)cc2)cnc1N)c1c(Cl)ccc(O)c1Cl` (centres unmarked) [Example 79, (4-{6-Amino-5-[1-(2,6-dichloro-3-hydroxy-phenyl)-ethoxy]-pyridin-3-yl}-phenyl)-piperazin-1-yl-methanone]: 0.071 µM. `C[C@@H](Oc1cc(-c2ccc(C(=O)N3CCNCC3)cc2)cnc1N)c1c(Cl)ccc(F)c1Cl` [Example 104, 3-[(1R)-1-(2,6-dichloro-3-fluorophenyl)ethoxy]-5-[4-(piperazin-1-ylcarbonyl)phenyl] pyridin-2-amine]: the inhibition constant (Ki) is 0.01 µM. Take `COc1cc(-c2cnc(N)c(OC(C)c3c(Cl)ccc(F)c3Cl)c2)ccc1OCCO` (centres unmarked) [Example 108, 2-(4-{6-amino-5-[1-(2,6-dichloro-3-fluorophenyl)ethoxy]pyridin-3-yl}-2-methoxyphenoxy)ethanol]: the affinity, expressed as Ki, was 0.022 µM.

Still in this experiment, the particulars now being: compound at 1 μM.
One may read the inhibition as how much of the control response was suppressed. On to `CC(Oc1cc(-c2ccc(C(=O)NCC3CCNC3)cc2)cnc1N)c1c(Cl)ccc(F)c1Cl` (centres unmarked) [Example 15, 4-{6-Amino-5-[1-(2,6-dichloro-3-fluorophenyl)ethoxy]pyridin-3-yl}-N-(pyrrolidin-3-ylmethyl)benzamide], for which the inhibition at 1 µM came to 85%. On the same count and under the same terms, next, `COCCN1CCN(C(=O)c2ccc(-c3cnc(N)c(OC(C)c4c(Cl)ccc(F)c4Cl)c3)cc2)CC1` (centres unmarked) [Example 4]: 95%; `CC(Oc1cc(-c2ccc(C(=O)NC3CCNCC3)cc2)cnc1N)c1c(Cl)ccc(F)c1Cl` (centres unmarked) [Example 12, 4-{6-Amino-5-[1-(2,6-dichloro-3-fluorophenyl)ethoxy]pyridin-3-yl}-N-piperidin-4-ylbenzamide]: 86%.
